# Tests used:
# [1] = tested on: HUVEC; format: cell-based
# Procedure: To determine the effect of spheroid culture on cell viability, spheroids and fibronectin-adherent HUVEC were recovered between 6 and 72 hours after plating, serially diluted and further cultured for an additional 48 hours before relative cell number was determined. A shift-to-the left or a flattening of the dilution curve indicates decreased viability.
# To test whether integrins modulate TNF-induced apoptosis, we cultured HUVEC on fibronectin (integrin-dependent adhesion) or as spheroids (integrin-independent adhesion) in the absence or presence of TNF (200 ng/ml) and of IFNγ (330 ng/ml), an enhancer of TNF cytotoxicity (Dealtry et al., Eur. J. Immunol. 17, 689-693 (1987)). […] To examine the effect of TNF±IFNγ on cell survival we determined the viability of untreated and treated cultures. […]
# For survival, HUVEC spheroids plated at 1×10^6 cells/ml in 1% BSA-coated 24 mm wells, or adherent cells plated at 4×10^5 cells in 3 μg/ml fibronectin-coated 35 mm wells of non-tissue culture plates (Evergreen Scientific), were stimulated with TNFα (200 ng/ml=10^4 U/ml)±IFNγ (330 ng/ml=10^4 U/ml). […] Relative cell number was assessed 48 hours later by measuring MTT conversion during the last 4 hours of culture. […]
# [2] = tested on: HUVEC; assay: Detection of apoptotic HUVEC in culture (YoPro-1 staining); format: cell-based, human; conditions: peptide 300 μM; TNF 200 ng/ml; IFNγ 330 ng/ml
# Procedure: To test whether integrins modulate TNF-induced apoptosis, we cultured HUVEC on fibronectin (integrin-dependent adhesion) or as spheroids (integrin-independent adhesion) in the absence or presence of TNF (200 ng/ml) and of IFNγ (330 ng/ml), an enhancer of TNF cytotoxicity (Dealtry et al., Eur. J. Immunol. 17, 689-693 (1987)). […] In contrast, spheroids treated with TNF±IFNγ increased uptake of YoPro-1 (an increase suppressed by caspase inhibitors BOC, Z-VAD, IETD and DVED), DNA fragmentation, caspase-3 activation and cleavage of PARP (FIG. 2a, 2b and data not shown). To examine the effect of TNF±IFNγ on cell survival we determined the viability of untreated and treated cultures. […] Treatment with IFNγ alone was not cytotoxic (data not shown). HUVEC adhere to immobilized fibronectin via αVβ3 and α5β1 integrins (Rüegg et al., Nature Med. 4, 408-414 (1998)). To test for the individual contribution of these integrins to cell survival on fibronectin, we cultured HUVEC on plastic-immobilized mAbs (imAbs) directed against αVβ3, α1, α5 and α4 integrins.
# For morphological evaluation, spheroids were embedded in Epon (Fluka Chemie) and thick sections were stained with 1% Methylene/Azur blue. For immunostaining, frozen spheroid sections were fixed in 4% (Fluka Chemis, Buchs, Switzerland) formaldehyde. After blocking with 1% BSA, sections were sequentially incubated for 1 hour with primary mAb (20 μg/ml) and a Cyan3-labeled GaM antiserum (West Grove, Pa., USA). For the TUNEL reaction, frozen spheroids sections were fixed in 4% paraformaledhyde and processed as described (Ruegg et al., I.e.). Spherouids were countsrstained with propidium iodide for total DNA content. […] The apoptosis index was determined by calculating the ratio between the green (TUNEL staining of fragmented DNA) and red (propidium iodide staining by total DNA) pixels. Number of analyzed spheroids per condition were: C, 31; T, 21; TI, 12. […] Cultures were viewed by inverted fluorescence microscopy (Leica DM IRB, Heerbrugg, Switzerland). […]
# [3] = target: T1, integrin αVβ3 (Homo sapiens, UniProt P05106+P06756); assay: Cell detachment assay, HUVEC on gelatin; format: cell-based; conditions: graded peptide concentrations; 2 hours
# T1 construct: EMD121974 disrupted αVβ3-mediated HUVEC adhesion on gelatin; endogenous in cells; host or cells: HUVEC (primary, passages 3 to 7)
# T1 sequence (P06756 31-889 limits assumed): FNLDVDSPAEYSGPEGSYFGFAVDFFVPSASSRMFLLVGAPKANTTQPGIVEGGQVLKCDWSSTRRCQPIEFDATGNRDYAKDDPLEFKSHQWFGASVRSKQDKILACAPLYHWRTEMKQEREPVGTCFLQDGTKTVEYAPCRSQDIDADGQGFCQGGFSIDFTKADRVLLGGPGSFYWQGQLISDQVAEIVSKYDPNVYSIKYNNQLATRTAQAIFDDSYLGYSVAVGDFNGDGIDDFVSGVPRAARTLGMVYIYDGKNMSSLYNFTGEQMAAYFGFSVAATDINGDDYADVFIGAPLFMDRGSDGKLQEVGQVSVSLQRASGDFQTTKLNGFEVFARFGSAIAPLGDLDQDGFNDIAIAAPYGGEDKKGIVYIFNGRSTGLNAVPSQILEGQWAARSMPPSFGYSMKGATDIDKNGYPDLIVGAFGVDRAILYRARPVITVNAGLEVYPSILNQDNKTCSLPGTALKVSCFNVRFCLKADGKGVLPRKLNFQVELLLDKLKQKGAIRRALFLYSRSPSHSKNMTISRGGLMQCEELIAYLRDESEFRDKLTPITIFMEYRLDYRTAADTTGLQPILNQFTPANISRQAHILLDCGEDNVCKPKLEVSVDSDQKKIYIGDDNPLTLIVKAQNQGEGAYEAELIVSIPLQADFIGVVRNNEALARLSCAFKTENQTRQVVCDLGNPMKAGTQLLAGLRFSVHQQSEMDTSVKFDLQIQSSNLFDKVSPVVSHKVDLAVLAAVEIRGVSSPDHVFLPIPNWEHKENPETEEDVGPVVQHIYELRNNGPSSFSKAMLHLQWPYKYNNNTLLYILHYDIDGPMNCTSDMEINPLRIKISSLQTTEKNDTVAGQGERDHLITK
# T1 sequence (P06756 891-1048 partner limits assumed): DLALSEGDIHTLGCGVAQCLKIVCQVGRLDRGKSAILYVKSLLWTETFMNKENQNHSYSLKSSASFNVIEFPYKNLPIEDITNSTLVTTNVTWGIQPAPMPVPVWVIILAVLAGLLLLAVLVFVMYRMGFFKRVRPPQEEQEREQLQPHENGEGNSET
# T1 sequence (P05106 27-788): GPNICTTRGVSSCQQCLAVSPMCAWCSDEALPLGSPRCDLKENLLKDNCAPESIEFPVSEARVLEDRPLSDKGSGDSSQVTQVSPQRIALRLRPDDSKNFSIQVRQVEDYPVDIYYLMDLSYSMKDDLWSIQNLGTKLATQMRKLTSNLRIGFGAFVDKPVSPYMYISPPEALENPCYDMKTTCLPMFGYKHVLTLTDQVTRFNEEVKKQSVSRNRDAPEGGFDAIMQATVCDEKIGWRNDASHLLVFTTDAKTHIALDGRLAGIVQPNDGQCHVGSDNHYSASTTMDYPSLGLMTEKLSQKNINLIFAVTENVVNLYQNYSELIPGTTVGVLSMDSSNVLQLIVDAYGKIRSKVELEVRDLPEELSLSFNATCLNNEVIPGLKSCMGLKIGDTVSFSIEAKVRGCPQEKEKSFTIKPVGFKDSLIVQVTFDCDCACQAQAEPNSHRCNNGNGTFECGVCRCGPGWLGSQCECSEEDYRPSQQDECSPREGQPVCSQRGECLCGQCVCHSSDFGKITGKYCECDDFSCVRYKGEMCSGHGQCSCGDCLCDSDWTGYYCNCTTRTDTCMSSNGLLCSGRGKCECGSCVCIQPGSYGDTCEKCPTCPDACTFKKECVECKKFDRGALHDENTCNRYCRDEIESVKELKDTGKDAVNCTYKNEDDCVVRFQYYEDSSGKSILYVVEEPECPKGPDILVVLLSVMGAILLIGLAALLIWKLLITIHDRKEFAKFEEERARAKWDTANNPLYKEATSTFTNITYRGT
# Procedure: (§1) Maxisorp II ELISA plates were coated with 1 μg/well of fibrobnectin or 0.5% gelatin overnight at 4° C. in PBS. Coated wells were rinsed and blocked with 1% BSA for 2 hours at 37° C. and rinsed before use. 2×10^4 c/well in basal medium without FCS were added and briefly sedimented by centrifugation (40×g). Cells were let adhere for 2 hours at 37° C. before peptides were added at graded concentrations. After 2 hours, wells were rinsed with warm PBS, and attached cells were fixed in 2% paraformaldehyde, stained with 0.5% crystal violet (Sigma Chemie) and quantified by O.D. reading at 620 nm (Packard Spectra Count). Results are given as O.D. values and represent the mean of duplicate wells ±s.d. of specific adhesion (= adhesion on ECM protein minus adhesion on BSA).
# [4] = target: T2, α5β1 (Homo sapiens, UniProt P05556+P08648); assay: Cell detachment assay, HUVEC on fibronectin; format: cell-based; conditions: graded peptide concentrations; 2 hours
# T2 construct: HUVEC adhere to immobilized fibronectin via αVβ3 and α5β1 integrins; endogenous in cells; host or cells: HUVEC (primary, passages 3 to 7)
# T2 sequence (P08648 42-894 limits assumed): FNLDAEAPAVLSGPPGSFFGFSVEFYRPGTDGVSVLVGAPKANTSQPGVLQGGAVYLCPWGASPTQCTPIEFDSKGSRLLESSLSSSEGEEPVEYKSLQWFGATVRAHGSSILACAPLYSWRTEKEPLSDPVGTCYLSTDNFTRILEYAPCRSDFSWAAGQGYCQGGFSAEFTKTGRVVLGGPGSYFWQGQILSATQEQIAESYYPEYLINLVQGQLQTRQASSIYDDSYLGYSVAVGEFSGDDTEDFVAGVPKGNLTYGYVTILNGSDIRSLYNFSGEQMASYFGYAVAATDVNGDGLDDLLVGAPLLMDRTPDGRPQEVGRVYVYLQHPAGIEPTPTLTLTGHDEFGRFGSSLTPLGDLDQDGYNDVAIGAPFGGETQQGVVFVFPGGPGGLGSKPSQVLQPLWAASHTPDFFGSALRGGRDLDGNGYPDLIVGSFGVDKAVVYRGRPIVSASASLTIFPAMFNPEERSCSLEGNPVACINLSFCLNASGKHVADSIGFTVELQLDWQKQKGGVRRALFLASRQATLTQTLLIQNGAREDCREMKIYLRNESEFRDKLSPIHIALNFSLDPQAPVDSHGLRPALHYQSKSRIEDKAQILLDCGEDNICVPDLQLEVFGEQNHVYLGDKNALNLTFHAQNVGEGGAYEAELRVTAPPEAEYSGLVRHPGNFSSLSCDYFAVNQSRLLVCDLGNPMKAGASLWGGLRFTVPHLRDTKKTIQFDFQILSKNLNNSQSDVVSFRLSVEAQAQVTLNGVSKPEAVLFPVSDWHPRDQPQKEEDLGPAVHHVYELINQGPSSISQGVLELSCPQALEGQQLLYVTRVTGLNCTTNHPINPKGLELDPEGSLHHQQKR
# T2 sequence (P08648 895-1049 partner limits assumed): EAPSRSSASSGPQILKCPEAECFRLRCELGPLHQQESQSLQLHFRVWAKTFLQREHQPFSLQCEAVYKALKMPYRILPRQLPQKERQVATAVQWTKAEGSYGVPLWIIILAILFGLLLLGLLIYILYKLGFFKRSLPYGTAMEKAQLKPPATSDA
# T2 sequence (P05556 21-798): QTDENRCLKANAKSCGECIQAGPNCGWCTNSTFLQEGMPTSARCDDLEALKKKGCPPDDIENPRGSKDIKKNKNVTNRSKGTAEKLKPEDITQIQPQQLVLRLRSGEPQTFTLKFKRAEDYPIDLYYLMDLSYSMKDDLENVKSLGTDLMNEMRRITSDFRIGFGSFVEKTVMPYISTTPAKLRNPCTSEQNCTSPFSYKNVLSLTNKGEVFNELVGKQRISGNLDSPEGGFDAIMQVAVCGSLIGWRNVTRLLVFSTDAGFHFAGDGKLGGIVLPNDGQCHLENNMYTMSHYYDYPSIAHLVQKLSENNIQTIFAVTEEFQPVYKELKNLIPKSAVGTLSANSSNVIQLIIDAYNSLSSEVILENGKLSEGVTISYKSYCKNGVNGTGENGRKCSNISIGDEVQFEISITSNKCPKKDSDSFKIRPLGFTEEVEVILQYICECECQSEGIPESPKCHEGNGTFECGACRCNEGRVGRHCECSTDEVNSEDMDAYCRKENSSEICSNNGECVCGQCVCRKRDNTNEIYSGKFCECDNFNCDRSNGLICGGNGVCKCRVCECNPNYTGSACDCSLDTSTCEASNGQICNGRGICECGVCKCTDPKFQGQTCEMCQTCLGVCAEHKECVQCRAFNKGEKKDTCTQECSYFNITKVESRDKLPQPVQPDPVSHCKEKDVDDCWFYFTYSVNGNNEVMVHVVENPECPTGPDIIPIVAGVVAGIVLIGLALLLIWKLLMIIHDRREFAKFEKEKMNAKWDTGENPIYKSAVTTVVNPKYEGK
# Procedure: as §1
# [5] = tested on: BN-175 syngeneic soft tissue sarcoma; assay: Isolated limb perfusion (ILP) of BN rats bearing BN-175 soft tissue sarcoma; format: in vivo; conditions: ILP 30 min; EMD121974 500 μg (plus 100 mg/kg i.p.); TNF 50 μg; 6 days after ILP
# Procedure: FIG. 7. Decreased integrin ligation enhances TNF cytotoxicity in in vivo. BN rats bearing the BN-175 syngeneic soft tissue sarcoma were treated with EMD121974 (□), TNF (Δ) or EMD121974/TNF (▪) by ILP technique. (◯) sham-treated rats. Tumor growth was measured for 6 days after ILP. Results represent the mean tumor volume ±s.e.m. (n=6). Small fragments of the syngeneic soft tissue sarcoma BN-175 were implanted in the right hind limb of male BN rats, and treatment started when diameter reached 12-14 mm (Manusama et al., Oncol Rep. 6, 173-177. (1999)). The femoral artery and vein were canulated with silastic tubing and collaterals occluded with a tourniquet. The perfusion was performed for 30 min with 5 ml Heamaccel® (2.4 ml/min) in which the drugs were added as boluses (EMD121974, 500 μg, end concentration in perfusate 170 μM; TNF, 50 μg). The perfusate was oxygenated and the leg kept on 38-39° C. with a warm mattress. Rats perfused with EMD121974 also received systemic administration of the peptide 2 hours before and 3 hours after ILP (100 mg/kg i.p.). Tumor diameter was measured in two directions by caliper measurements and tumor volume (V) was calculated (V= 0.4)(A^2×B, where B represents the largest diameter and A the diameter perpendicular to B). 6 rats were treated per group. Local and systemic side effects were evaluated as described (Manusama et al., Oncol. Rep. 6, 173-177. (1999)). […]
# [6] = tested on: BN175 tumor cells; assay: Sensitivity of BN175 tumor cells in vitro; format: cell-based, rat; conditions: unpublished observation
compound,measurement,setting,value
"CC(C)[C@H]1C(=O)N[C@@H](CCCN=C(N)N)C(=O)NCC(=O)N[C@@H](CC(=O)O)C(=O)N[C@H](Cc2ccccc2)C(=O)N1C [EMD121974, cyclo-(Arg-Gly-Asp-DPhe-NMeVal)]","cell viability / survival of fibronectin-adherent HUVEC, agent alone","[1]; fibronectin-adherent, TNF 200 ng/ml ± IFNγ 330 ng/ml, EMD peptide 300 μM",neither TNF/IFNγ nor EMD121974 alone affected survival
same,"survival of HUVEC on fibronectin, combined exposure to TNF/IFNγ and peptide","[1]; peptide 300 μM, TNF 200 ng/ml, IFNγ 330 ng/ml",reduced survival
same,"apoptosis and detachment of HUVEC on fibronectin, combined exposure to TNF/IFNγ and peptide",[2],increased apoptosis and detachment
same,αVβ3-mediated HUVEC adhesion on gelatin,[3],disrupted
same,α5β1 component of the α5β1/αVβ3-mediated adhesion to fibronectin,[4],does not affect
same,tumor growth,[5],no impact on tumor growth
same,sensitivity of BN175 tumor cells to αVβ3 selective inhibitors,[6],low sensitivity

# — US20090035270A1, “COMBINATION THERAPY USING ANTI-ANGIOGENIC AGENTS AND TNF alpha” (priority 2001, published 2009)
